# Counter-ions that a name gives are not always drawn.
# Experiments:
# [1] = biological target: T1, μ receptor (Mus musculus, UniProt P42866); experiment: Ke with naloxone in isolated mouse vas deference preparation; type: cell-based, mouse (male ddy)
# T1 construct: The isolated vas deference was filled with Krebes-Henseleit solution; from tissue; host or cells: isolated vas deferens of male ddy mouse
# Method: (§1) A male ddy mouse was used in this test. The isolated vas deference was filled with Krebes-Henseleit solution (NaCl 118 mM; KCl 4.7 mM; CaCl2 2.5 mM; KH2 PO4 1.1 mM; NaHCO3 25 mM; and glucose 10 mM) warmed to 37° C. and suspended in a Magnus tube ventilated with 5% carbon dioxide and 95% oxygen. Electrical stimulus was performed at 0.1 Hz for 5.0 ms by means of ring-shaped platinum electrodes located above and below. Tissue contractions were recorded on a polygraph using an isometric transducer.
# (§2) Then after adequately washing with nutrient solution and the contraction reaction stabilized, naloxone, a μ […], NTI, a δ […], or norBNI, a κ […], were added and the test compound was again cumulatively added after roughly 20 minutes. The Ke value was calculated using the following calculation formula from the difference in the efficacies of both agonists.
# (§3) Ke=[Conc. of added agonist]/(IC50 ratio-1)
# (§4) IC50 ratio IC50 in the presence of agonist/IC50 in the absence of agonist
# [2] = biological target: T2, δ receptor (Mus musculus, UniProt P32300); experiment: Ke with NTI in isolated mouse vas deference preparation; type: cell-based, mouse (male ddy); settings: for Ke NTI: NTI (δ)
# T2 construct: The isolated vas deference was filled with Krebes-Henseleit solution; from tissue; host or cells: isolated vas deferens of male ddy mouse
# T2 sequence (P32300 whole entry): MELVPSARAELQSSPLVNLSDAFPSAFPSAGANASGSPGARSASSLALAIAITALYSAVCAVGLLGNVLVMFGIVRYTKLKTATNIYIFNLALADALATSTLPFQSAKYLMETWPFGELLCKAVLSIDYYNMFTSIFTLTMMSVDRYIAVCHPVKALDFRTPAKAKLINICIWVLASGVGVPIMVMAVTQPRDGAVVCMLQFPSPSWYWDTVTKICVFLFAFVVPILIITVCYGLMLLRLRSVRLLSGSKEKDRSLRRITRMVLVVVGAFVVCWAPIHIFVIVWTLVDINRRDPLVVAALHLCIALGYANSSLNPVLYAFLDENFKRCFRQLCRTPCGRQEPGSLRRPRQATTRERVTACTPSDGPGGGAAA
# Method: as §1, §2, §3, §4
# [3] = biological target: T3, κ receptor (Mus musculus, UniProt P33534); experiment: Ke with norBNI in isolated mouse vas deference preparation; type: cell-based, mouse (male ddy); settings: for Ke norBNI: norBNI (κ)
# T3 construct: The isolated vas deference was filled with Krebes-Henseleit solution; from tissue; host or cells: isolated vas deferens of male ddy mouse
# T3 sequence (P33534 whole entry): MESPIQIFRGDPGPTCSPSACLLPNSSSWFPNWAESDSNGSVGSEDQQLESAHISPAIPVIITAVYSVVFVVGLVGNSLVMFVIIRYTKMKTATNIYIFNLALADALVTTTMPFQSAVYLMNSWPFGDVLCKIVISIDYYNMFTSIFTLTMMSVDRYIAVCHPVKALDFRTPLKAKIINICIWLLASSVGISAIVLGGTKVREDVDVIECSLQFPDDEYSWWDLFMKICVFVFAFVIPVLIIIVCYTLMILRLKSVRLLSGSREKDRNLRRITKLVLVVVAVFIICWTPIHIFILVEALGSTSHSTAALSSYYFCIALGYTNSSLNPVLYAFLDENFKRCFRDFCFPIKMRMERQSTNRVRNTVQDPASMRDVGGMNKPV
# Method: as §1, §2, §3, §4
# [4] = tested on: Wistar rats; experiment: Evaluation of diuretic action; type: in vivo, rat (male Wistar); settings: sc, rat, s.c., urine output for 5 h after 20 ml/kg saline oral; for ED500: read-out: ED500, diuretic action (dose giving urine output of 500, non-dosed group = 100); for ED200: read-out: ED200, diuretic action (dose giving urine output of 200, non-dosed group = 100)
# Method: Evaluation of Diuretic Action
# 7-8 week old male Wistar rats were used in this test after prohibiting from drinking water for 1 hour before testing. After discharging any urine accumulated in the bladder by gently stimulating the lower abdomens of the animals, the drug was administered subcutaneously. After 30 minutes, the animals were then forcibly given 20 ml/kg of physiological saline orally. The animals were then placed in metabolic cages immediately after administration of the drug (2 animals/cage) and urine output for 5 hours after loading with physiological saline was measured. Drug efficacy was expressed in the form of those doses resulting in urine outputs of 200 and 500, respectively, when the urine output of a non-dosed group was taken to be 100. Those doses were expressed as the ED200 and ED500 values, respectively.
# [5] = tested on: isolated mouse vas deference; experiment: Opioid activity test using the isolated mouse vas deference preparation (electrically stimulated contractions); type: cell-based, mouse (male ddy); settings: suppression of electrically stimulated contractions
# Method: Opioid Activity Test Using the Isolated Mouse Vas Deference Preparation
# as §1, §2
# T1 sequence (P42866 whole entry): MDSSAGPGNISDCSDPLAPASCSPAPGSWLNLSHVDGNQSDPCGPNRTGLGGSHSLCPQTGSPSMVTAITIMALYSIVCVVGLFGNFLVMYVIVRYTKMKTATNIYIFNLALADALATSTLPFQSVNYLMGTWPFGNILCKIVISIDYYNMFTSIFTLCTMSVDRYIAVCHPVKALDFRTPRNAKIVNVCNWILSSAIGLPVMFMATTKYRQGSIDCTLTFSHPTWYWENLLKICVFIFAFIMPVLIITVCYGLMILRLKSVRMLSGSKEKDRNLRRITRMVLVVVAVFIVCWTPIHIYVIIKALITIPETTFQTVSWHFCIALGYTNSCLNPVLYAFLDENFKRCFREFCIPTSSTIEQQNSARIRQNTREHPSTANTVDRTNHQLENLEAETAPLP
Structure (SMILES),Ke Naloxone [1],Ke NTI [2],selective agonist for κ receptors (in words) [3],Ke norBNI [3],ED500 [4],ED200 [4],selective agonist for δ receptors (in words) [2],IC50 [5]
"CN(C(=O)CCc1ccccc1)[C@H]1CC[C@@]2(O)[C@H]3Cc4ccc(O)c5c4[C@@]2(CCN3CC2CC2)[C@H]1O5 [Compound 22, 17-Cyclopropylmethyl-4,5α-epoxy-3,14β-dihydroxy-6α-(N-methyl-3-phenylpropionamido)morphinan.tartrate]",800 nM,545 nM,selective agonists for κ receptors,5.53 nM,17 µg/kg,0.95 µg/kg,–,–
"CN(C(=O)/C=C/c1ccccc1)[C@H]1CC[C@@]2(O)[C@H]3Cc4ccc(O)c5c4[C@@]2(CCN3CC2CC2)[C@H]1O5 [Compound 24, 17-cyclopropylmethyl-3,14β-dihydroxy-4,5α-epoxy-6α-(N-methylcinnamamido)morphinan.hydrochloride]",16.5 nM,0.426 nM,–,4.90 nM,6.3 µg/kg,0.69 µg/kg,selective agonists for δ receptors,–
"CN(C(=O)COc1ccccc1)[C@H]1CC[C@@]2(O)[C@H]3Cc4ccc(O)c5c4[C@@]2(CCN3CC2CC2)[C@H]1O5 [Compound 38, 17-cyclopropylmethyl-3,14β-dihydroxy-4,5α-epoxy-6α-(N-methylphenoxyacetamido) morphinan.hydrochloride]",411 nM,16.6 nM,selective agonists for κ receptors,4.65 nM,–,3.8 µg/kg,–,–
"CCCCCC(=O)N(C)[C@H]1CC[C@@]2(O)[C@H]3Cc4ccc(O)c5c4[C@@]2(CCN3CC2CC2)[C@H]1O5 [Compound 39, 17-cyclopropylmethyl-3,14β-dihydroxy-4,5α-epoxy-6α-(N-methylhexanamido)morphinan.tartrate]",89.9 nM,99.3 nM,selective agonists for κ receptors,1.01 nM,–,4.1 µg/kg,–,–
"CN(C(=O)OCc1ccc([N+](=O)[O-])cc1)[C@H]1CC[C@@]2(O)[C@H]3Cc4ccc(O)c5c4[C@@]2(CCN3CC2CC2)[C@H]1O5 [Compound 43, 17-cyclopropylmethyl-3,14β-dihydroxy-4,5α-epoxy-6α-(N-methyl-4-nitrobenzyloxycarbamido)morphinan.hydrochloride]",409 nM,22.5 nM,selective agonists for κ receptors,5.31 nM,4.4 µg/kg,0.54 µg/kg,–,–
"CN(C(=O)/C=C/c1cccc(C(F)(F)F)c1)[C@@H]1CC[C@@]2(O)[C@H]3Cc4ccc(O)c5c4[C@@]2(CCN3CC2CC2)[C@H]1O5 [Compound 60, 17-cyclopropylmethyl-3,14β-dihydroxy-4,5α-epoxy-60-(N-methyl-3-trifluoromethylcinnaiamido)morphinan.tartrate]",–,291 nM,selective agonists for κ receptors,3.20 nM,–,–,–,0.468 nM
"CN(C(=O)/C=C/c1ccoc1)[C@@H]1CC[C@@]2(O)[C@H]3Cc4ccc(O)c5c4[C@@]2(CCN3CC2CC2)[C@H]1O5 [Compound 61, 17-cyclopropylmethyl-3,14β-dihydroxy-4,5α-epoxy-6β-[N-methyl-trans-3-(3-furyl)acrylamido]morphinan.tartrate]",–,–,–,0.164 nM,–,3.2 µg/kg,–,0.42 nM
"CN(C(=O)/C=C/C1CCCCC1)[C@@H]1CC[C@@]2(O)[C@H]3Cc4ccc(O)c5c4[C@@]2(CCN3CC2CC2)[C@H]1O5 [Compound 68, 17-cyclopropylmethyl-3,14,β-dihydroxy-4,5α-epoxy-6β-(N-methyl-3-cyclohexylacrylamido) morphinan.tartrate]",5710 nM,143 nM,selective agonists for κ receptors,1.08 nM,–,1.6 µg/kg,–,0.457 nM
"Cc1cccc(/C=C/C(=O)N(C)[C@@H]2CC[C@@]3(O)[C@H]4Cc5ccc(O)c6c5[C@@]3(CCN4CC3CC3)[C@H]2O6)c1 [Compound 69, 17-cyclopropylmethyl-3,14β-dihydroxy-4,5α-epoxy-6β-(N-methyl-3-methylcinnamamido)morphinan.hydrochloride]",1780 nM,64.5 nM,selective agonists for κ receptors,1.95 nM,–,–,–,0.32 nM
"CN(C(=O)/C=C/c1ccco1)[C@@H]1CC[C@@]2(O)[C@H]3Cc4ccc(O)c5c4[C@@]2(CCN3CC2CC2)[C@H]1O5 [Compound 70, 17-cyclopropylmethyl-3,14β-dihydroxy-4,5α-epoxy-62. [N-methyl-trans-3-(2-furyl)acrylamido] morphinan.hydrochloride]",–,–,selective agonists for κ receptors,0.198 nM,–,–,–,0.545 nM
"CN(C(=O)C#Cc1ccccc1)[C@H]1CC[C@@]2(O)[C@H]3Cc4ccc(O)c5c4[C@@]2(CCN3CC2CC2)[C@H]1O5 [Compound 84, 17-cyclopropylmethyl-3,14β-dihydroxy-4,5α-epoxy-6α-(N-methyl-3-phenylpropiolamido)morphinan.hydrochloride]",35.4 nM,0.309 nM,–,5.69 nM,–,2.8 µg/kg,selective agonists for δ receptors,–
"CN(C(=O)/C=C/c1ccoc1)[C@H]1CC[C@@]2(O)[C@H]3Cc4ccc(O)c5c4[C@@]2(CCN3CC2CC2)[C@H]1O5 [Compound 89, 17-cyclopropylmethyl-3,14β-dihydroxy-4,5α-epoxy-6α-[N-methyl-trans-3-(3-furyl)acrylamido]morphinane.tartrate]",18.3 nM,15.6 nM,selective agonists for κ receptors,0.85 nM,–,1.2 µg/kg,–,–
"CN(C(=O)/C=C/c1cccc([N+](=O)[O-])c1)[C@H]1CC[C@@]2(O)[C@H]3Cc4ccc(O)c5c4[C@@]2(CCN3CC2CC2)[C@H]1O5 [Compound 97, 17-cyclopropylmethyl-3,14β-dihydroxy-4,5α-epoxy-6α-(N-methyl-3-nitrocinnamamido)morphinanphosphate]",163 nM,2.92 nM,–,13.9 nM,–,4.5 µg/kg,selective agonists for δ receptors,–
"CCC/C=C/C(=O)N(C)[C@@H]1CC[C@@]2(O)[C@H]3Cc4ccc(O)c5c4[C@@]2(CCN3CC2CC2)[C@H]1O5 [Compound 100, 17-cyclopropylmethyl-3,14β-dihydroxy-4,5α-epoxy-6β-(N-methyl-trans-2-hexenamido)morphinan.tartrate]",1797 nM,–,selective agonists for κ receptors,0.0717 nM,–,–,–,0.647 nM
"CN(C(=O)C#Cc1ccccc1)[C@@H]1CC[C@@]2(O)[C@H]3Cc4ccc(O)c5c4[C@@]2(CCN3CC2CC2)[C@H]1O5 [Compound 101, 17-cyclopropylmethyl-3,14β-dihydroxy-4,5α-epoxy-6β-(N-methyl-3-phenylpropiolamido)morphinan.hydrochloride]",25.4 nM,31.6 nM,selective agonists for κ receptors,0.0425 nM,–,8.9 µg/kg,–,–
"CN(C(=O)/C=C/c1cccc(F)c1)[C@@H]1CC[C@@]2(O)[C@H]3Cc4ccc(O)c5c4[C@@]2(CCN3CC2CC2)[C@H]1O5 [Compound 102, 17-cyclopropylmethyl-3,14β-dihydroxy-4,5α-epoxy-6β-(N-methyl-3-fluorocinnamamido)morphinan.tartrate]",–,276 nM,selective agonists for κ receptors,2.37 nM,–,1.4 µg/kg,–,1.6 nM
